Data published in PubChem BioAssay AID1205 (EPA DSSTox, 2008).
Active and inactive are the calls of the source.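 How the source made its calls: active means tumour findings in long-term animal cancer tests in more than one sex, species or organ; inactive means no tumour finding and more than one negative test.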 *1 amine or outer side, *2 acyl side, *3 side chain or, on linkers, in order; H or OH if unused. Where a SMILES comes first, the peptide text is derived from it. Bridges are numbered along the chain shown (N, C = ends). Roman numbers before positions name the chains, in order. [ ]: non-standard residue; d: D form. Actinocin(9to1) = Cc1c2oc3c(C)ccc(C(=O)[*:1])c3nc-2c(C(=O)[*:2])c(N)c1=O; NMeV = CN[C@H](C(=O)O)C(C)C; Sar = CNCC(=O)O

Assay: DSSTox (CPDBAS) Carcinogenic Potency Database Summary MultiCellCall Results
Details: animal carcinogenicity bioassays, multi-cell call summary
In short: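 ActivityScore sums 50 for multispecies, 30 for multisex and 20 for multisite positivity. Based on the most positive experiment per sex-species across standardised chronic rodent and other animal cancer tests.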
In the case of `O=S(=O)([O-])[O-].[Cd+2]`, the outcome is reported as “active; multisex active”.
In the case of `O=c1cc[nH]c(=S)[nH]1`, the outcome is reported as “active; multisite active; multisex active; multispecies active”.
In the case of `CC(C)NCC(O)COc1ccc(CC(N)=O)cc1` (stereo not given), the outcome is reported as “inactive; multisex inactive”.
For `Nc1ccc2c(c1)C(=O)c1ccccc1C2=O`, the outcome was “active; multisite active; multisex active; multispecies active”.
In the case of `C=C(C)C(=O)OC`, the outcome is reported as “inactive; multisex inactive; multispecies inactive”.
In the case of `Cc1cc(C)c(N=Nc2c(O)c(S(=O)(=O)O)cc3cc(S(=O)(=O)O)ccc23)cc1C`, the outcome is reported as “active; multisex active”.
For `C=CN1CCCC1=O`, the outcome was “active; multisite active; multisex active”.
For `O=C(O)COc1ccc(Cl)cc1Cl`, the outcome was “inactive; multisex inactive; multispecies inactive”.
For `O=C/C=C/O`, the outcome was “active; multisite active; multisex active; multispecies active”.
With `NNC(N)=O` the outcome was “active; multisite active; multisex active”.
For `COC(C)(C)C`, the outcome was “active; multisite active; multisex active; multispecies active”.
With `NC(=O)Cc1c([O-])on[n+]1Cc1ccccc1` the outcome was “active; multisex active; multispecies active”.
With `COc1cc(-c2ccc(N=C=O)c(OC)c2)ccc1N=C=O` the outcome was “active; multisite active; multisex active”.
In the case of `COc1ccc(N)cc1`, the outcome is reported as “inactive; multisex inactive; multispecies inactive”.
With `Clc1ccc2c(c1)C(c1ccccc1)=NCc1nncn1-2` the outcome was “inactive; multisex inactive; multispecies inactive”.
In the case of `CCN=[N+](C)[O-]`, the outcome is reported as “active; multisite active”.
In the case of `CN1C(C(=O)Nc2ccccn2)=C(O)c2sc(Cl)cc2S1(=O)=O`, the outcome is reported as “inactive; multisex inactive”.
In the case of `Nc1ccc(-c2ccc(N)c(Cl)c2)cc1Cl`, the outcome is reported as “active; multisite active; multisex active; multispecies active”.
With `C=CCN(N=O)C(N)=O` the outcome was “active; multisite active; multisex active”.
In the case of `Cc1ccc2ccccc2c1`, the outcome is reported as “inactive; multisex inactive”.
In the case of `O=C(O)c1ccccc1`, the outcome is reported as “inactive; multisex inactive; multispecies inactive”.
With `CC(O)CCl` (stereo not given) the outcome was “inactive; multisex inactive; multispecies inactive”.
In the case of `Cc1ccccc1N`, the outcome is reported as “active; multisite active; multisex active; multispecies active”.
For `CC1=C(/C=C/C(C)=C/C=C/C(C)=C/C(=O)O)C(C)(C)CCC1`, the outcome was “inactive; multisex inactive; multispecies inactive”.
With `CC1(C)S[C@@H]2[C@H](NC(=O)COc3ccccc3)C(=O)N2[C@H]1C(=O)O` the outcome was “inactive; multisex inactive; multispecies inactive”.
In the case of `ClCC(Cl)CCl`, the outcome is reported as “active; multisite active; multisex active; multispecies active”.
For `FC(F)Cl`, the outcome was “inactive; multisex inactive; multispecies inactive”.
With `CC1CC(C)(C)CC(OOC(C)(C)C)(OOC(C)(C)C)C1` (stereo not given) the outcome was “inactive; multisex inactive”.
For `CC(O)CO` (stereo not given), the outcome was “inactive; multisex inactive”.
For `FC(F)(Cl)Cl`, the outcome was “inactive; multisex inactive; multispecies inactive”.
For `O=C(Nc1nc(-c2ccc([N+](=O)[O-])o2)cs1)C(F)(F)F`, the outcome was “active; multisite active; multispecies active”.
With `C=CCl` the outcome was “active; multisite active; multisex active; multispecies active”.
In the case of `O=C1CN(/N=C/c2ccc([N+](=O)[O-])o2)C(=O)N1`, the outcome is reported as “active; multisite active; multisex active; multispecies active”.
With `Cc1ccc(S(=O)(=O)OCCN(C)N=O)cc1` the outcome was “active; multisite active; multisex active”.
With `CCCCNC(=O)NS(=O)(=O)c1ccc(C)cc1` the outcome was “inactive; multisex inactive; multispecies inactive”.
With `CC/C(=C(\c1ccccc1)c1ccc(OCCN(C)C)cc1)c1ccccc1` the outcome was “active; multisite active; multisex active; multispecies active”.
With `CCCCCNN` the outcome was “active; multisite active”.
For `CCCCCCCCCc1ccc(OCCOCCO)cc1`, the outcome was “inactive; multispecies inactive”.
In the case of `Cc1ccc2c(c1[N+](=O)[O-])C(=O)c1ccccc1C2=O`, the outcome is reported as “active; multisite active; multisex active; multispecies active”.
In the case of `NC(=O)c1ccncc1`, the outcome is reported as “inactive; multisex inactive”.
For `Clc1ccc(C(c2ccc(Cl)cc2)C(Cl)(Cl)Cl)cc1`, the outcome was “active; multisite active; multisex active; multispecies active”.
With `COc1ccc([N+](=O)[O-])cc1N` the outcome was “active; multisite active; multisex active; multispecies active”.
For `CC(=O)Nc1ccc(O)cc1`, the outcome was “active; multisite active; multisex active; multispecies active”.
In the case of `CC(=O)Nc1ccc(OCC(O)CNC(C)C)cc1` (stereo not given), the outcome is reported as “inactive; multisex inactive; multispecies inactive”.
In the case of `CC/C=C(/CC)[N+](=O)[O-]`, the outcome is reported as “active; multispecies active”.
In the case of `CN(C)c1ccc(C(=O)c2ccc(N(C)C)cc2)cc1`, the outcome is reported as “active; multisite active; multisex active; multispecies active”.
With `C[C@](N)(Cc1ccc(O)c(O)c1)C(=O)O` the outcome was “inactive; multisex inactive; multispecies inactive”.
With `Nc1ccccc1C(=O)O` the outcome was “inactive; multisex inactive; multispecies inactive”.
In the case of `c1ccc2c(c1)Nc1ccccc1S2`, the outcome is reported as “inactive; multisex inactive”.
In the case of `CCBr`, the outcome is reported as “active; multisite active; multisex active; multispecies active”.
For `CCN(CC)C(=O)/C(Cl)=C(\C)OP(=O)(OC)OC`, the outcome was “inactive; multisex inactive”.
For `P`, the outcome was “inactive; multisex inactive”.
With `C[C@]12CC[C@@H]3c4ccc(OC(=O)Cc5ccc(N(CCCl)CCCl)cc5)cc4CC[C@H]3[C@@H]1CC[C@@H]2OC(=O)Cc1ccc(N(CCCl)CCCl)cc1` the outcome was “active; multisite active; multisex active”.
For `COP(=S)(OC)SCn1nnc2ccccc2c1=O`, the outcome was “inactive; multisex inactive; multispecies inactive”.
With `CC(=O)Nc1nnc(-c2ccc([N+](=O)[O-])o2)s1` the outcome was “active; multisite active; multispecies active”.
With `NC(=O)N(CCCO)N=O` the outcome was “active; multisex active”.
For `Nc1ccc(N(CCO)CCO)cc1`, the outcome was “inactive; multisex inactive”.
In the case of `C=CC1=C(C)C2=CC3=NC(=C(CC(=O)[O-])C4=NC(=C(C)C4=C([O-])[O-])C=c4[n-]c(c(C)c4CC)=CC1=N2)[C@@H](CCC(=O)[O-])[C@@H]3C.[Cu+2].[Na+].[Na+].[Na+]`, the outcome is reported as “inactive; multisex inactive”.
In the case of `C1CO1`, the outcome is reported as “active; multisite active; multisex active; multispecies active”.
In the case of `c1ccc2c(c1)cc1ccc3cccc4ccc2c1c34`, the outcome is reported as “active; multisite active; multisex active; multispecies active”.
With `NCCNc1cccc2ccccc12` the outcome was “inactive; multisex inactive; multispecies inactive”.
In the case of `ClC1=C(Cl)[C@]2(Cl)[C@@H]3[C@H]4C[C@H]([C@@H]5O[C@H]45)[C@@H]3[C@@]1(Cl)C2(Cl)Cl`, the outcome is reported as “inactive; multisex inactive; multispecies inactive”.
In the case of `C[C@@H]1Cc2c(Cl)cc(C(=O)N[C@@H](Cc3ccccc3)C(=O)O)c(O)c2C(=O)O1`, the outcome is reported as “active; multisite active; multisex active; multispecies active”.
With `Cc1c2oc3c(C)ccc(C(=O)N[C@@H]4C(=O)N[C@H](C(C)C)C(=O)N5CCC[C@H]5C(=O)N(C)CC(=O)N(C)[C@@H](C(C)C)C(=O)O[C@@H]4C)c3nc-2c(C(=O)N[C@@H]2C(=O)N[C@H](C(C)C)C(=O)N3CCC[C@H]3C(=O)N(C)CC(=O)N(C)[C@@H](C(C)C)C(=O)O[C@@H]2C)c(N)c1=O` (I: T[dV]P[Sar][NMeV] / II: T[dV]P[Sar][NMeV]; ester I:1-I:C, II:1-II:C; linker I:N-II:N via Actinocin(9to1)) the outcome was “active; multisex active”.
With `CC(=O)N(O)c1ccc2c(c1)Cc1ccccc1-2` the outcome was “active; multisite active; multisex active; multispecies active”.
